Where two headings read alike, the source gives them in different places.
Assays:
[1] = target: IRAK4 (Homo sapiens (Human), UniProt Q9NWZ3); test: IRAK4 Inhibition Assay; assay type: biochemical; conditions: ATP 500 μM; IRAK4 0.6 nM; read-out: IRAK4 IC50
How it was run: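 IRAK4 combined with fluorescent substrate and compounds, reacted 60 min at room temperature, stopped with 35 mM EDTA. Substrate and phosphorylated product separated electrophoretically on a Caliper LabChip 3000 mobility-shift reader.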

[2] = test system: TLR2 induced IL-6 in peripheral blood mononuclear cells (PBMCs); test: PBMC TLR2 Induced IL-6 Assay; assay type: cell-based, human; conditions: human PBMCs, lipoteichoic acid stimulated, IL-6 by ELISA; for IC50: read-out: Cell IC50; for EC50: read-out: Cell EC50
How it was run: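 Lipoteichoic acid at 10 µg/ml served as TLR2 stimulus for 5 hours, following a 30-minute compound pretreatment at 37° C. Cells were Ficoll-isolated human PBMCs, 250000 cells/well, cultured in RPMI plus 10% heat-inactivated FCS.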

IRAK4, sequence (Q9NWZ3 whole entry, species assumed): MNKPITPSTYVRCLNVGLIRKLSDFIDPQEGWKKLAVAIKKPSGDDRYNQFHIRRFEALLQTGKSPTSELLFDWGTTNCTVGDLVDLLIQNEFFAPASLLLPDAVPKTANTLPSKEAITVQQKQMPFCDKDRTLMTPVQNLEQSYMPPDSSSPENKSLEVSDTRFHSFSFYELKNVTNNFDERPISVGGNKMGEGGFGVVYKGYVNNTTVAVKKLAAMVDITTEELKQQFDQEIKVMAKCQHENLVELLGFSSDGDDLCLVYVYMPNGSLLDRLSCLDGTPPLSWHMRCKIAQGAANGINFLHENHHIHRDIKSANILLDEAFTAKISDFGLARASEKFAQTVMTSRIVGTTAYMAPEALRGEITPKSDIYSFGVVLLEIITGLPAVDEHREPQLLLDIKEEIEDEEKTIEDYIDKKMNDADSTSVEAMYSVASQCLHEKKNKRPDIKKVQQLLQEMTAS

SMILES	IC50 [1]	IC50 ([2]; Homo sapiens, PBMC)	EC50 ([2]; Homo sapiens, PBMC)	IC50 [2]	EC50 [2]
CC(C)(O)[C@H](F)CNC(=O)c1cnc(-n2ccc3cc(C#N)cnc32)cc1N[C@H]1CC[C@H](C(N)=O)CC1 [Example 486]	1.2 nM	177 nM			
CC(C)Nc1cc(-n2ccc3cc(C#N)cnc32)ncc1C(=O)NCCC1(O)CCCC1 [Example 487]	2 nM	111 nM	34 nM		
CC(C)(O)[C@H](F)CNC(=O)c1cnc(-n2ccc3cc(C#N)cnc32)cc1NC1CCC(NCC(F)(F)F)C1 (some centres unmarked) [Example 488]	6.8 nM		208 nM	379 nM	
CC(C)(O)[C@H](F)CNC(=O)c1cnc(-n2ccc3cc(C#N)cnc32)cc1NC1CCC(NCC(F)(F)F)C1 (some centres unmarked) [Example 489]	4.3 nM			1700 nM	318 nM
CC(C)Nc1cc(-n2ccc3cc(C#N)cnc32)ncc1C(=O)NCC(F)C1(O)COC1 (centres unmarked) [Example 494]	3 nM	289 nM			
CC(C)Nc1cc(-n2ccc3cc(C#N)cnc32)ncc1C(=O)NCC(F)C1(O)COC1 (centres unmarked) [Example 495]	1.8 nM			215 nM	
CC(C)Nc1cc(-n2ccc3cc(C#N)cnc32)ncc1C(=O)N[C@H]1CC[C@H](C(C)(C)O)C1 [Example 497]	3.7 nM	98 nM			
CC(C)COC(=O)NCc1cnc2c(ccn2-c2cc(NC(C)C)c(C(=O)NC[C@@H](F)C(C)(C)O)cn2)c1 [Example 498]	5.7 nM	248 nM			
CCN(CC)C(=O)NCc1cnc2c(ccn2-c2cc(NC(C)C)c(C(=O)NC[C@@H](F)C(C)(C)O)cn2)c1 [Example 500]	13.2 nM	546 nM			
CCOC(=O)NCc1cnc2c(ccn2-c2cc(NC(C)C)c(C(=O)NC[C@@H](F)C(C)(C)O)cn2)c1 [Example 501]	5.4 nM	332 nM			
CC(C)Nc1cc(-n2ccc3cc(CNC(=O)OC(C)C)cnc32)ncc1C(=O)NC[C@@H](F)C(C)(C)O [Example 502]	4.8 nM	366 nM			
CC(C)CC(=O)NCc1cnc2c(ccn2-c2cc(NC(C)C)c(C(=O)NC[C@@H](F)C(C)(C)O)cn2)c1 [Example 503]	2.3 nM	99 nM			
CC(C)Nc1cc(-n2ccc3cc(CNC(=O)CC4CCCC4)cnc32)ncc1C(=O)NC[C@@H](F)C(C)(C)O [Example 504]	4.3 nM	262 nM			
CC(C)Nc1cc(-n2ccc3cc(CNC(=O)C4CC4)cnc32)ncc1C(=O)NC[C@@H](F)C(C)(C)O [Example 505]	13.5 nM	559 nM			
C[C@@H](F)CNc1cc(-n2ccc3cc(C#N)cnc32)ncc1C(=O)NC[C@@H](F)C(C)(C)O [Example 506]	1.5 nM	65 nM			
C[C@H](F)CNc1cc(-n2ccc3cc(C#N)cnc32)ncc1C(=O)NC[C@@H](F)C(C)(C)O [Example 507]	1.4 nM	374 nM			
CCCOC(=O)NCc1cnc2c(ccn2-c2cc(NC(C)C)c(C(=O)NC[C@@H](F)C(C)(C)O)cn2)c1 [Example 508]	2.8 nM	224 nM			
CC(C)(O)[C@H](F)CNC(=O)c1cnc(-n2ccc3cc(C#N)cnc32)cc1N[C@H]1C[C@H](C(C)(C)O)C1 [Example 509]	1.6 nM	128 nM			
CCCC(=O)NCc1cnc2c(ccn2-c2cc(NC(C)C)c(C(=O)NC[C@@H](F)C(C)(C)O)cn2)c1 [Example 510]	3.2 nM	250 nM			
CC(C)Nc1cc(-n2ccc3cc(CNC(=O)CC4CCCCC4)cnc32)ncc1C(=O)NC[C@@H](F)C(C)(C)O [Example 511]	5.4 nM	47 nM			

More lines, main results first:

IC50 [1]	SMILES	IC50 ([2]; Homo sapiens, PBMC)	EC50 ([2]; Homo sapiens, PBMC)	IC50 [2]	EC50 [2]
3.5 nM	CC(C)CCC(=O)NCc1cnc2c(ccn2-c2cc(NC(C)C)c(C(=O)NC[C@@H](F)C(C)(C)O)cn2)c1 [Example 512]	541 nM			
5.9 nM	CCCNC(=O)NCc1cnc2c(ccn2-c2cc(NC(C)C)c(C(=O)NC[C@@H](F)C(C)(C)O)cn2)c1 [Example 513]	389 nM			
8.2 nM	CC(C)Nc1cc(-n2ccc3cc(CNC(=O)NCc4ccccc4)cnc32)ncc1C(=O)NC[C@@H](F)C(C)(C)O [Example 514]	47 nM			
2.2 nM	CC(C)Nc1cc(-n2ccc3cc(CNC(=O)Cc4ccccc4)cnc32)ncc1C(=O)NC[C@@H](F)C(C)(C)O [Example 515]	542 nM			
8.6 nM	CCCCNC(=O)NCc1cnc2c(ccn2-c2cc(NC(C)C)c(C(=O)NC[C@@H](F)C(C)(C)O)cn2)c1 [Example 516]	414 nM			
1.2 nM	CC(C)(F)[C@H](F)CNC(=O)c1cnc(-n2ccc3cc(C#N)cnc32)cc1Nc1cccc(O)c1 [Example 517]	113 nM			
14 nM	CC(C)Nc1cc(-n2ccc3cc(CNC(=O)CC4CCOCC4)cnc32)ncc1C(=O)NC[C@@H](F)C(C)(C)O [Example 518]	94 nM			
2.7 nM	CC(C)Nc1cc(-n2ccc3cc(CNC(=O)CC(C)(C)C)cnc32)ncc1C(=O)NC[C@@H](F)C(C)(C)O [Example 519]	126 nM			
10.5 nM	CC(C)Nc1cc(-n2ccc3cc(CNC(=O)C4CCOC4)cnc32)ncc1C(=O)NC[C@@H](F)C(C)(C)O (some centres unmarked) [Example 520]	347 nM			
3.5 nM	CC(C)(O)c1cnc(Nc2cc(-n3ncc4cc(C#N)cnc43)ncc2C(=O)NC[C@@H](F)C(C)(C)O)s1 [Example 521, (R)-6-(5-Cyano-1H-pyrazolo[3,4-b]pyridin-1-yl)-N-(2-fluoro-3-hydroxy-3-methylbutyl)-4-((5-(2-hydroxypropan-2-yl)thiazol-2-yl)amino)nicotinamide]		460 nM		
2.6 nM	CC(C)(O)[C@H](F)CNC(=O)c1cnc(-n2ncc3cc(C#N)cnc32)cc1Nc1cccc(C#N)c1 [Example 522]		177 nM		
2.6 nM	CC(C)(O)[C@H](F)CNC(=O)c1cnc(-n2ncc3cc(C#N)cnc32)cc1Nc1ccc2ncsc2c1 [Example 524]		132 nM		
1.6 nM	CC(C)(O)[C@H](F)CNC(=O)c1cnc(-n2ncc3cc(C(N)=O)cnc32)cc1Nc1ccc2ncoc2c1 [Example 525]		253 nM		
3.7 nM	CC(C)(O)[C@H](F)CNC(=O)c1cnc(-n2ncc3cc(C#N)cnc32)cc1Nc1ccc(-n2cncn2)cc1 [Example 526]		113 nM		
3 nM	Cn1nnnc1-c1ccc(Nc2cc(-n3ncc4cc(C#N)cnc43)ncc2C(=O)NC[C@@H](F)C(C)(C)O)cc1 [Example 527]		228 nM		
3.3 nM	CC(C)(O)[C@H](F)CNC(=O)c1cnc(-n2ncc3cc(C#N)cnc32)cc1Nc1cccc(C#N)c1F [Example 528]	326 nM	91 nM		
2.2 nM	Cn1cc(-c2ccc(Nc3cc(-n4ncc5cc(C#N)cnc54)ncc3C(=O)NC[C@@H](F)C(C)(C)O)cc2)cn1 [Example 531]	67 nM			
5.5 nM	CC(C)(O)[C@H](F)CNC(=O)c1cnc(-n2ncc3cc(C#N)cnc32)cc1N[C@@H]1CCN(c2ncc(F)cn2)C1 [Example 532, 6-(5-Cyano-1H-pyrazolo[3,4-b]pyridin-1-yl)-N—((R)-2-fluoro-3-hydroxy-3-methylbutyl)-4-(((R)-1-(5-fluoropyrimidin-2-yl)pyrrolidin-3-yl)amino)nicotinamide]				127 nM
10.3 nM	CC(C)(O)[C@H](F)CNC(=O)c1cnc(-n2ncc3cc(C#N)cnc32)cc1N[C@H]1CCN(c2ncc(F)cn2)C1 [Example 533]		194 nM		
4 nM	CC(C)(O)[C@H](F)CNC(=O)c1cnc(-n2ncc3cc(C#N)cnc32)cc1NC1CCN(c2ccccc2)CC1 [Example 535]		185 nM		
8.1 nM	COc1cnc(N2CC[C@@H](Nc3cc(-n4ncc5cc(C#N)cnc54)ncc3C(=O)NC[C@@H](F)C(C)(C)O)C2)nc1 [Example 536]		189 nM		
6.8 nM	CC(C)(O)[C@H](F)CNC(=O)c1cnc(-n2ncc3cc(C#N)cnc32)cc1N[C@@H]1CCN(c2ncccn2)C1 [Example 537]		159 nM		
9.6 nM	CC(C)(O)[C@H](F)CNC(=O)c1cnc(-n2ncc3cc(C#N)cnc32)cc1N[C@@H]1CCN(C(=O)c2ccc(F)cc2F)C1 [Example 538]	698 nM			
6.3 nM	CC(C)(O)[C@H](F)CNC(=O)c1cnc(-n2ncc3cc(C#N)cnc32)cc1NC1CN(c2ncc(F)cn2)C1 [Example 539]		256 nM		
